Active and inactive are the calls of the source.
Tests used:
[1] = system: HeLa; assay: ATP-based viability loss in HeLa cells – cell-based, CellTiter-Glo luminescence, cherry-pick samples, cytotoxicity control for MITF activator project, dose response (AID 540259); assay type: functional; conditions: Homo sapiens
[2] = target: Intestinal-type alkaline phosphatase (Mus musculus, UniProt P24822); assay: PubChem AID 488785; assay type: functional
[3] = target: T1, Histone-lysine N-methyltransferase NSD2 (Homo sapiens, UniProt O96028); assay type: biochemical
T1 sequence (O96028 whole entry): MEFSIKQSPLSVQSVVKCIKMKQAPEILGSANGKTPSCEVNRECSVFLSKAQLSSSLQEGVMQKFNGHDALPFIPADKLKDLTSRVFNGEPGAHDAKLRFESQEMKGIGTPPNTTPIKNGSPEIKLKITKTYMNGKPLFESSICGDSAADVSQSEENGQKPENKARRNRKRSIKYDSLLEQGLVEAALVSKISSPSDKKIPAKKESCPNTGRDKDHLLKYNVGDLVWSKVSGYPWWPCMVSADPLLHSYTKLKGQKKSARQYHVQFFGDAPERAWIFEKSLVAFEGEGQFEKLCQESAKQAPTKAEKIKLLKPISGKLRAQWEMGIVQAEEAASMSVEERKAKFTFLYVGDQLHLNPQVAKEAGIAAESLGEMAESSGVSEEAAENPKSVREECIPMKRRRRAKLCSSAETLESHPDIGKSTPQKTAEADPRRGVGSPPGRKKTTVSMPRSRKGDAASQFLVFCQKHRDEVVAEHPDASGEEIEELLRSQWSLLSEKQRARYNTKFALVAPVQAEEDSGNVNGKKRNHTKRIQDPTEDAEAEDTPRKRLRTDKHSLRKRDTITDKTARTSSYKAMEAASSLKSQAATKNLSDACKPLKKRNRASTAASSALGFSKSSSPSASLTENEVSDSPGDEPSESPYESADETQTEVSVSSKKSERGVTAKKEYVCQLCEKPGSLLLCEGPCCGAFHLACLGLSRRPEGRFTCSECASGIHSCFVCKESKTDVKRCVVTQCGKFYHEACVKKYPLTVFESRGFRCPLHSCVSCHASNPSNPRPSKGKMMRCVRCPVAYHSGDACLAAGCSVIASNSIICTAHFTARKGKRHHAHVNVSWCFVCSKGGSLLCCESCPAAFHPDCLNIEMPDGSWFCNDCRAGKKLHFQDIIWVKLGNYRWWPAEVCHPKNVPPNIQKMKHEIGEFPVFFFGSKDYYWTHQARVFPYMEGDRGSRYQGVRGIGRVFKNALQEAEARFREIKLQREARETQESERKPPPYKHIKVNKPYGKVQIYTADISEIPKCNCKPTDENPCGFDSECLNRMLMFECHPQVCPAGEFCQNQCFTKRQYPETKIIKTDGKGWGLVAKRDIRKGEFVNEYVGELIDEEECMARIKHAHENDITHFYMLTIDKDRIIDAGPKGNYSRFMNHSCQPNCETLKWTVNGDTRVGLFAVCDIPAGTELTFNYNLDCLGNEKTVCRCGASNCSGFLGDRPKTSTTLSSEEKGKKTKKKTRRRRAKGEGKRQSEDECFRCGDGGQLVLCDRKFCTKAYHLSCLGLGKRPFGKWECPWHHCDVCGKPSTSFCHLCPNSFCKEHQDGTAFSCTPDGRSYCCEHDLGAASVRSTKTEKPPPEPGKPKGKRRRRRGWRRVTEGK

[4] = target: Intestinal-type alkaline phosphatase (Homo sapiens, UniProt P09923); assay: inhibition of human intestinal alkaline phosphatase – biochemical, dose response (AID 488876); assay type: functional
Intestinal-type alkaline phosphatase (Homo sapiens, UniProt P09923), sequence (P09923 whole entry): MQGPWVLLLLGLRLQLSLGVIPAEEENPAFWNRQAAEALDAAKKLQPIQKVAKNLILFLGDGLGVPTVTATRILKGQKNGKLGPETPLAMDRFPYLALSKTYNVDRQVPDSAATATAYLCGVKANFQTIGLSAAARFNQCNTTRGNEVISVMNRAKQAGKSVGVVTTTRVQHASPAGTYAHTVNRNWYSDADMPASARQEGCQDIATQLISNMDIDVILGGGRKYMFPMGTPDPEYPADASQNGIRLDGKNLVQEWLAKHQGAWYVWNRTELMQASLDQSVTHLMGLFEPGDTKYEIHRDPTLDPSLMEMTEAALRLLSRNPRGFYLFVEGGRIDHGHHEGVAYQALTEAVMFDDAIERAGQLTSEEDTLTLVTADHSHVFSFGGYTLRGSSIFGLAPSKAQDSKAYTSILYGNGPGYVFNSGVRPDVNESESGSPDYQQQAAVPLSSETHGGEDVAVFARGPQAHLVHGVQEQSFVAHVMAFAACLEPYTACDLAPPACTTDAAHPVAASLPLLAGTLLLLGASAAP

[5] = target: T2, Alkaline phosphatase, tissue-nonspecific isozyme (Homo sapiens, UniProt P05186); assay: TNAP enzyme inhibition by screening hits, dose response, selectivity assay for mouse IAP inhibitor project, biochemical, human TNAP, uHTS hits (AID 488906); assay type: functional
T2 sequence (P05186 whole entry): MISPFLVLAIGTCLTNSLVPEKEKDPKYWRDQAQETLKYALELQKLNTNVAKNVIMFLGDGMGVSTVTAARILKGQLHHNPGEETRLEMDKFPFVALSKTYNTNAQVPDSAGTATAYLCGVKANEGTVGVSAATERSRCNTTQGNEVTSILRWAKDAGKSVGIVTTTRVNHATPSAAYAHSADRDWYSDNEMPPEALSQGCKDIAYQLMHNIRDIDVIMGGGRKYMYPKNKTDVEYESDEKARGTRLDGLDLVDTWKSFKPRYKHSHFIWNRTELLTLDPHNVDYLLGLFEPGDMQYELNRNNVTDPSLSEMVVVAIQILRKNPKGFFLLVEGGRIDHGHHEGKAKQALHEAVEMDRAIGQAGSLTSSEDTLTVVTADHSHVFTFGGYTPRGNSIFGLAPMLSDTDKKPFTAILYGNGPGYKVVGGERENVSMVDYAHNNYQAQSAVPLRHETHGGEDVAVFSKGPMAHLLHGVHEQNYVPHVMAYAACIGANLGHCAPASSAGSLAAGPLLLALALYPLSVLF

[6] = decrease of insulin promoter-GFP reporter – imaging, high-content screening, mouse beta cells (AID 1628); assay type: functional; conditions: MIN6
[7] = MIN6 cell viability loss – mouse insulinoma, cytotoxicity control, dose response (AID 2122); assay type: functional;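 further: confirmatory high-throughput counterscreen run to flag cytotoxic compounds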
[8] = cells; assay type: functional, cell-based
[9] = target: Nonstructural protein 1 (Influenza A virus, UniProt Q194T2); assay type: functional, Influenza A virus (A/California/07/2009(H1N1))
Nonstructural protein 1, sequence (Q194T2 whole entry): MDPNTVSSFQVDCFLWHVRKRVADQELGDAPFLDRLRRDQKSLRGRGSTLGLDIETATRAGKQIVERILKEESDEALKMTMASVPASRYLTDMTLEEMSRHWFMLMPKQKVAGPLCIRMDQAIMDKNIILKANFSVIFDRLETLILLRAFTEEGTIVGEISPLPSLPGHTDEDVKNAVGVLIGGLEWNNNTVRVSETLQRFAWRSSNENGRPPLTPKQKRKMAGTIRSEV

[10] = cells; assay type: functional, cell-based; remark: listed apart in the source
[11] = target: Cytochrome P450 3A4 (Homo sapiens, UniProt P08684);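 further: CYP3A4 tested as one member of a cytochrome P450 panel screen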
Cytochrome P450 3A4, sequence (P08684 whole entry): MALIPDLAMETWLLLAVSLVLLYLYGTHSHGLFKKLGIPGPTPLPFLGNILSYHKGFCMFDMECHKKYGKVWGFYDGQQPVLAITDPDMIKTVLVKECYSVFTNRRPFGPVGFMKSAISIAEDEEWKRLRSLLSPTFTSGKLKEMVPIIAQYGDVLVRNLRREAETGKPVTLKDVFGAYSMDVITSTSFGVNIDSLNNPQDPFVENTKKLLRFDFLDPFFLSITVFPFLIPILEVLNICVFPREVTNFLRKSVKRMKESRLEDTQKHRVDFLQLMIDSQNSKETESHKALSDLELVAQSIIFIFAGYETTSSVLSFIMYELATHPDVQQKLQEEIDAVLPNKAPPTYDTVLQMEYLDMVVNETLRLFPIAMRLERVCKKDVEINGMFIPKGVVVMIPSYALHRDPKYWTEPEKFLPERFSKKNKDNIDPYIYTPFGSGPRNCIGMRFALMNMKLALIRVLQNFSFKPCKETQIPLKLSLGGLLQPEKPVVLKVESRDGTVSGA

[12] = system: Escherichia coli; assay: microbe, parasite or virus in culture
[13] = target: T3, Hexokinase HKDC1 (Homo sapiens, UniProt Q2TB90); assay: analog inhibition of human HKDC1 activity – biochemical, set 2, SAR follow-up (AID 588355); assay type: functional
T3 sequence (Q2TB90 whole entry): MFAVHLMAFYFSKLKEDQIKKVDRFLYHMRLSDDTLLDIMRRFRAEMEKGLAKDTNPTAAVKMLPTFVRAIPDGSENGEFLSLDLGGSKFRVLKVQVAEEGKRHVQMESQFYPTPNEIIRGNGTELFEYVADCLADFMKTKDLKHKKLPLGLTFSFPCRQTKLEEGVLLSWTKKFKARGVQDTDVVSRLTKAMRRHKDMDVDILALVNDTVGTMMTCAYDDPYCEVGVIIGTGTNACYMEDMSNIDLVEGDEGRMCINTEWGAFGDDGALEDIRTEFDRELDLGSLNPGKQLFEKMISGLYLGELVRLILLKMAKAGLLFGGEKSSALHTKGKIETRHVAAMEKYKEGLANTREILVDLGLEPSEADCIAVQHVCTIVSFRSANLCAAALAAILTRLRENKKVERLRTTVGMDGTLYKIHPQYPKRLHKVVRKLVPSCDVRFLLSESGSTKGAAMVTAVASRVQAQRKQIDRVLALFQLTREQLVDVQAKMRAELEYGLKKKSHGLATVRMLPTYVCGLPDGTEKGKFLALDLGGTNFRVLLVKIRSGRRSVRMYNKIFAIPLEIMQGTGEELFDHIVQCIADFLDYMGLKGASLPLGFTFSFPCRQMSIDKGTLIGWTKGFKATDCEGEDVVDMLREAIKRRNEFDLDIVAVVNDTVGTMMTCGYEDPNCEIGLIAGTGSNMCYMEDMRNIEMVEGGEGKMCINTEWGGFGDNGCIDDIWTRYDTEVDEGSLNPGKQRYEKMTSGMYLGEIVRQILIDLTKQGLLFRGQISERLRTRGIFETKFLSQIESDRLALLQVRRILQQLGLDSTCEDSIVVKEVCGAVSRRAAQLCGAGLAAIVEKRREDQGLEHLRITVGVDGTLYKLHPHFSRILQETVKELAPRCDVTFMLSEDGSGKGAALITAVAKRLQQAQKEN

[14] = target: Hexokinase-1 (Homo sapiens, UniProt P19367); assay: hexokinase 1 activity inhibitors, potency – biochemical, set 2, resazurin fluorescence coupled readout, selectivity assay for HKDC1 inhibitor project, SAR follow-up (AID 588356); assay type: functional
Hexokinase-1, sequence (P19367 whole entry): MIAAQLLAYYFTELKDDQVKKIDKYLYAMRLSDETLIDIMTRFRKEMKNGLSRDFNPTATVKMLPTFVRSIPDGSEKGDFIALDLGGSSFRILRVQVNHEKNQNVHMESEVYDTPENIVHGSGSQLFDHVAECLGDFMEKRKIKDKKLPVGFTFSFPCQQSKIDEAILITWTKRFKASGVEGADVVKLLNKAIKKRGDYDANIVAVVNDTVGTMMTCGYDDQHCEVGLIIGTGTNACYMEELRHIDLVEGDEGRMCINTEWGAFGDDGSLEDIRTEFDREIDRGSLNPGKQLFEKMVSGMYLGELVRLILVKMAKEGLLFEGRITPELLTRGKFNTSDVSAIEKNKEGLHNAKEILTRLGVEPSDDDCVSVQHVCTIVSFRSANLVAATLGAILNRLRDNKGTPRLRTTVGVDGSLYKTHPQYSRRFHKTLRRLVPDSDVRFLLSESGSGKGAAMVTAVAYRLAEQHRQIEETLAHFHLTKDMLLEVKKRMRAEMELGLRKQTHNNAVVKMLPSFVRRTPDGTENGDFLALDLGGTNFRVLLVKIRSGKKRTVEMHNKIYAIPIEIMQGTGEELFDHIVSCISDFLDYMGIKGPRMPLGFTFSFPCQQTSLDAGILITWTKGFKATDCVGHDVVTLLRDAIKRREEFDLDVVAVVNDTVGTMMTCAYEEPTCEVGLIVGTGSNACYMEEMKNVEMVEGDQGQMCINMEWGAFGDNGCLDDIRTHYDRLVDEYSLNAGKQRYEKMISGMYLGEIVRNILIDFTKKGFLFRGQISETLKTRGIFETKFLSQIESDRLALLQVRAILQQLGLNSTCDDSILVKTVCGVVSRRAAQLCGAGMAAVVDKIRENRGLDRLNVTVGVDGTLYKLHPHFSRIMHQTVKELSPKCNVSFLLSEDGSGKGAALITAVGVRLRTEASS

[15] = target: SUMO E1/E2 (Homo sapiens, UniProt P63279+Q9UBE0+Q9UBT2); assay: SAR analysis of SUMOylation using HTRF in an in-Vitro dose response assay. [Related pubchem assays (depositor defined):AID2006, AID2011, AID2018, AID2069, AID2658]; assay type: functional
SUMO E1/E2, sequence (Q9UBE0 whole entry): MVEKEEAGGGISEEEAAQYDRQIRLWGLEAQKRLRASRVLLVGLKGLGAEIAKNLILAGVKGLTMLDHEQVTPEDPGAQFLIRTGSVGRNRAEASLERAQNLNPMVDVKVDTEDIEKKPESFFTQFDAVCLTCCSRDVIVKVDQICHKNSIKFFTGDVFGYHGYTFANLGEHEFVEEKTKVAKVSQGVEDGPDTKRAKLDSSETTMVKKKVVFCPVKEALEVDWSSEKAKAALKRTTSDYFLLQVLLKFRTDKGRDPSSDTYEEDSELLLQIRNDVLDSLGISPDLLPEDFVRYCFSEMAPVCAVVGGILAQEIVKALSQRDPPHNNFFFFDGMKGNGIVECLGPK
SUMO E1/E2, sequence (Q9UBT2 whole entry): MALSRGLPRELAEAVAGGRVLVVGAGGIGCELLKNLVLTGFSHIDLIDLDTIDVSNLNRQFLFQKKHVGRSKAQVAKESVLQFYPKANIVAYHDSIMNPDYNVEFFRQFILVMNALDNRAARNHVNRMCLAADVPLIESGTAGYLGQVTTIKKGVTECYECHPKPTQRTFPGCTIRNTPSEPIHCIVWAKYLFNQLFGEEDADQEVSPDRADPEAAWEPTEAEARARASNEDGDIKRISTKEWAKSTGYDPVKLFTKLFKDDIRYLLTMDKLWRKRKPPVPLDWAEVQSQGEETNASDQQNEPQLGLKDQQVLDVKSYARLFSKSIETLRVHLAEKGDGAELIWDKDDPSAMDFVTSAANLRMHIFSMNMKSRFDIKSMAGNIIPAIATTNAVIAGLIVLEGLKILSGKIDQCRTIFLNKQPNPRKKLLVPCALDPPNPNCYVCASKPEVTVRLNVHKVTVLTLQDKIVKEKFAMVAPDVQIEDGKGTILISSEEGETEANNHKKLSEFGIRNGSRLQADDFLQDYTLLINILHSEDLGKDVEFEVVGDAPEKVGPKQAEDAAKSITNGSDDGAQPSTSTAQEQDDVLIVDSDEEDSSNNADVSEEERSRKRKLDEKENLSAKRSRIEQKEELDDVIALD
SUMO E1/E2, sequence (P63279 whole entry): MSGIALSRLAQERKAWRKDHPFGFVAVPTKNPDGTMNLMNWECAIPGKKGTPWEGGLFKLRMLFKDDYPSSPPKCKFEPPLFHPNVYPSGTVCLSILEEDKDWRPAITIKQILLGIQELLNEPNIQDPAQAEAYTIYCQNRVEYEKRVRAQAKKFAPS

[16] = target: Potassium voltage-gated channel subfamily KQT member 2 (Rattus norvegicus, UniProt O88943); assay: rat KCNQ2 current potentiators – automated patch clamp, KCNQ2-CHO cells, SAR follow-up (AID 493113); assay type: functional
Potassium voltage-gated channel subfamily KQT member 2, sequence (O88943 whole entry): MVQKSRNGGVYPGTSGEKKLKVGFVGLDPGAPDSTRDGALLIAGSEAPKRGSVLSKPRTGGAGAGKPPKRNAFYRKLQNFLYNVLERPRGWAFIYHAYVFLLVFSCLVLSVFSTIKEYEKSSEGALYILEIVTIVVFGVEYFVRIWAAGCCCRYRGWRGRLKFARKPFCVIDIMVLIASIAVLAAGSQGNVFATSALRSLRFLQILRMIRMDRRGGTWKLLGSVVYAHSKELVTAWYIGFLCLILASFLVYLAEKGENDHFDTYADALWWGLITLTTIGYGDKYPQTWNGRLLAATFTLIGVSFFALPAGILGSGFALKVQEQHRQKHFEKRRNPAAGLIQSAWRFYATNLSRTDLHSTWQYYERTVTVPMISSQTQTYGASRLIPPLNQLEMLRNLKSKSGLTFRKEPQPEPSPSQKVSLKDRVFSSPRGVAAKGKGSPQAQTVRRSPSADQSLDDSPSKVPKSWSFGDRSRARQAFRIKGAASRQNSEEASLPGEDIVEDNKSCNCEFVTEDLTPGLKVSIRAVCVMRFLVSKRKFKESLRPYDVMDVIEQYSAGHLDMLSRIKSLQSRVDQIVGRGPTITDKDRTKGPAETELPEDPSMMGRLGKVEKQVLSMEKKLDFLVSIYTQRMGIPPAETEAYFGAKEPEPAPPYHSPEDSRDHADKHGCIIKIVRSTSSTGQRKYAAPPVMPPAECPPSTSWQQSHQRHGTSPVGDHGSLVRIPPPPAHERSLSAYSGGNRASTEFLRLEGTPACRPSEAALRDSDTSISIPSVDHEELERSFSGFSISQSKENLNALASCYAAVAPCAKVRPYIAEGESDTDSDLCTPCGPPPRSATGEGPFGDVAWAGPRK

[17] = fluconazole-exposed Candida albicans growth modulators – fluorescence, retest, confirmation (AID 2467); assay type: functional, cell-based
[18] = target: T4, Streptokinase A (Streptococcus pyogenes serotype M1, UniProt P10520); assay: viability-normalized secreted streptokinase activity reduction – plasminogen activation absorbance, OD405, dose response (AID 1914); assay type: functional, Streptococcus pyogenes M1 GAS;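 further: secreted streptokinase activity via plasminogen activation per viability signal from cell pellet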
T4 sequence (P10520 whole entry): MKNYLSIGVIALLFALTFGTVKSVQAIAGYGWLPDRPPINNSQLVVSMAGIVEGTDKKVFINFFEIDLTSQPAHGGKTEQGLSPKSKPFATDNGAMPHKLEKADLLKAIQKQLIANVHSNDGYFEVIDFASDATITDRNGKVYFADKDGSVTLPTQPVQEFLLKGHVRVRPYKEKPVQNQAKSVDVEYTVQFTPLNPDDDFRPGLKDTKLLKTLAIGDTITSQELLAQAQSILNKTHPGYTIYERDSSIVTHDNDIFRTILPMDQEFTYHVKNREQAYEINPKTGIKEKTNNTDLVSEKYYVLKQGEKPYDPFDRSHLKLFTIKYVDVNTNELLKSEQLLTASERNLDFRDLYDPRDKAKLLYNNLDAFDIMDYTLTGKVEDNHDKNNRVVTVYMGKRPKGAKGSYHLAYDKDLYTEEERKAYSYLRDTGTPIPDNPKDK

[19] = NIH-3T3 fibroblast cytotoxicity, dose response, cytotoxicity control, cell-based, fluorescence, Alamar Blue, secondary assay (AID 2327); assay type: functional;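 further: NIH-3T3 mouse fibroblasts cultured with fluconazole at 8 µg/mL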
[20] = system: Streptococcus sp. 'group A'; assay: Streptococcus pyogenes SK(-)GAS viability under kanamycin – luminescence, BacTiterGlo, confirmation, counter-screen for streptokinase expression inhibitor project, dose response (AID 1900); assay type: functional, organism-based
[21] = system: Streptococcus; assay: GAS UMAA2166 growth inhibition – luminescence, BacTiterGlo, counter-screen for streptokinase expression inhibitor project, dose response (AID 1915); assay type: functional, organism-based;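 further: potency for reduction of bacterial viability or growth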

Intestinal-type alkaline phosphatase (Mus musculus, UniProt P24822), sequence (P24822 whole entry): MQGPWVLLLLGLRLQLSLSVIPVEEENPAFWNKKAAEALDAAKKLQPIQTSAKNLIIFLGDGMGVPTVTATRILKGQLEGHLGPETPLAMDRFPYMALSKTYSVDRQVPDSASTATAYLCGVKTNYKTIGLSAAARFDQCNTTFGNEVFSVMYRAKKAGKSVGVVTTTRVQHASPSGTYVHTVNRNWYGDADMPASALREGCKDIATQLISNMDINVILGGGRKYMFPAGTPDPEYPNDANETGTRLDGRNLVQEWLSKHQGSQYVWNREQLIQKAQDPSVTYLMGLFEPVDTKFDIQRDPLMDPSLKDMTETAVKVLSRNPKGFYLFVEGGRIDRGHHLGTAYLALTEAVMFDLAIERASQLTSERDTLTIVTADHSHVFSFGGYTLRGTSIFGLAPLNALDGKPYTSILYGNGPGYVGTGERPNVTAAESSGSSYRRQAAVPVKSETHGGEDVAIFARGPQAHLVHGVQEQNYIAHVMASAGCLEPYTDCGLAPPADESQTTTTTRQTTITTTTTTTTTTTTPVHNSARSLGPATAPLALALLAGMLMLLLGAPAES

SMILES: Cc1cc(C)c2nc(NCc3ccccc3O)sc2c1
- AC50 [1]: 42.4 µM (active)

SMILES: CC1(C)CC(/C=C/c2ccccc2)=Nc2ccccc2N1
- AC50 [1]: 37.3 µM (active)

SMILES: O=C(CSc1nc2nn(-c3ccccc3)c(=O)c-2c2n1CCCCC2)c1ccc(O)c(O)c1
- IC50 [2]: 9.04 µM (active)
- AC50 [3]: 2.62 µM (active)
- IC50 [4]: > 100 µM (inactive)
- IC50 [5]: > 100 µM (inactive)

SMILES: c1ccc(-c2ccccc2OCCOCCN2CCc3ccccc3C2)cc1
- IC50 [6]: 2.55 µM (active)
- IC50 [7]: 3.85 µM (active)

SMILES: Cc1cc(NC(c2cccnc2)c2ccc3cccnc3c2O)no1 (stereo not drawn)
- EC50 [8]: 11.9 µM (active)
- IC50 [6]: 3.53 µM (active)
- IC50 [9]: 7.09 µM (active)
- EC50 [10]: > 350 µM (not active)
- IC50 [7]: 3.65 µM (active)

SMILES: O=C(c1ccccc1)c1ccc(OCC(O)CN2CCN(Cc3ccccc3)CC2)cc1 (stereo not drawn)
- AC50 [11]: inconclusive

SMILES: COC(=O)CN1C(=O)N/C(=C/c2ccccc2OC)C1=O
- AC50 [12]: 60.7 µM (active)

SMILES: COc1ccc2c(c1)C(NC(C)=O)C(=O)N2CCN1CCOCC1 (stereo not drawn)
- IC50 [13]: 8.31 µM (active)
- IC50 [14]: > 80 µM (inactive)
- IC50 [15]: 9.45 µM (active)

SMILES: Cc1cccc(NC(=O)C2CC3CCC2C3)c1C (stereo not drawn)
- EC50 [16]: 1 µM (active)

SMILES: Cc1ccc(NC(=O)C2CC3CCC2C3)cc1 (stereo not drawn)
- EC50 [16]: 0.75 µM (active)

SMILES: COc1cc2c(cc1OC)-c1cc(Nc3ncn[nH]3)nc(=O)n1CC2
- IC50 [13]: > 80 µM (inactive)
- IC50 [14]: > 80 µM (inactive)

SMILES: C/C(=C\C(=O)OCCCCCCCCC(=O)O)C[C@@H]1OC[C@H](C[C@@H]2O[C@H]2[C@@H](C)[C@H](C)O)[C@@H](O)[C@H]1O [MUPIROCIN]
- EC50 [17]: > 38 µM (not active)
- EC50 [18]: 0.423 µM (active)
- EC50 [19]: > 150 µM (inactive)
- EC50 [20]: < 0.06 µM (active)
- EC50 [21]: < 0.06 µM (active)
- AC50 [12]: 4.99 µM (active)

— ChEMBL document CHEMBL1201862, “PubChem BioAssay data set” (2004)
